Source: patent US20260083687A1, “COMPOUNDS FOR REDUCING LACTATION AND IMPROVING HEALTH” (AHV International B.V., priority 2022, published 2026)
Values joined by “and” are separate entries in the source; they are usually repeats but may differ in a detail not shown here. Equal values may be shown once. Read-outs that look alike come from different tables or passages of the source.

Columns and labels:
[1] = system: cows (Holstein Friesians)
Method: Study design. Twelve cows (Holstein Friesians) from 1 farm were used. The start of the dry period of every cow was between 40 to 60 days before calving. The cows were milked twice a day at fixed times and the cows were selected on a milk production of >12.5 litres/day 24 hours before PTS administering took place. […] No extra measures were taken to stimulate dry-off, such as changes in feed ration or changes in milking frequency. The cows were milked twice a day. The cows were housed in free stables. A porcine gelatine capsule with PTS or placebo gel capsule with water were administered 7 to 14 days before the start of the dry-off period.
For this study various dosages synthetic PTS (>98% purity) were administered to cows with a milk yield of at least 12.5 kg milk per day. The following dosages were applied: 0, 10, 20, 40 ml of pure PTS. For each dosage 2 cows were used.
Before the various dosages were administered the milk yield was monitored for 14 days. The gel capsules were orally administered by a bolus shooter, the gel capsule for the placebo group contained tap water. Administering of a capsule took place between the morning and afternoon milking. On t=14 days the PTS-containing capsules and the placebo capsules were administered and the milk yield was monitored 48 hours more.

[2] = system: cows (Holstein Friesians); assay: Treatment with DPD analogs (organosulfur compounds) and milk yield (Example 8); format: in vivo, cow
Method: Study design. 36 cows (Holstein Friesians) from 2 farms were used. The feed of the cows was composed of TMR, including corn and grass silage, supplemented with soya and minerals. […] The cows were milked in a milk robot. […] The cows were milked twice a day. The cows were housed in free stables. […] Placebo treatment corresponded to administration of two gel capsules containing 180 ml water.
For this study dosages synthetic compounds (>96% purity) as indicated in table 17 were administered to cows. The objective of this study was to compare the activity of a corresponding dose of the compounds expressed in mol, based on the number of moles that is present in 80 ml di-n-propyl disulfide at 20° C. The number of moles was converted to ml or grams of the tested compounds. For this purpose, the molecular weight and specific density were used in the calculations. The compounds were formulated in the gel capsules as indicated in the previous examples.
Before the various dosages were administered, the milk yields were monitored for at least 5 days.

[3] = individual cows, dose per compound as listed in E284
[4] = vs milk yield before treatment, individual cows, dose per compound as listed in E284

Compound: CCCS[S+]([O-])CCC (centres unmarked) [PTS, di-n-propyl thiosulfinate]
- effect on milk yield compared to the milk yield before treatment ([1]; 20 ml PTS): clear lowering on milk yield
- effect on milk yield/day ([1]; 40 and 60 ml PTS): visible
- Milk yield ([1]; 40 ml PTS given after last milking on day 0, day 0, individual cows): 32.4 kg and 28.4 kg
- Milk yield ([1]; 40 ml PTS given on day 0, day 1, individual cows): 22.4 kg and 21.9 kg
- Milk yield ([1]; 40 ml PTS given on day 0, day 2, individual cows): 24.4 kg and 23.4 kg
- Milk yield ([1]; 40 ml PTS given on day 0, day 3, individual cows): 28.9 kg and 26.4 kg
- Milk yield ([1]; 40 ml PTS given on day 0, day 4, individual cows): 32.2 kg and 27.1 kg
- Milk yield ([1]; 40 ml PTS given on day 0, day 5, individual cows): 31.2 kg and 28.2 kg
- Milk yield ([1]; 40 ml PTS given on day 0, day 6, individual cows): 32.0 kg and 28.3 kg
- Milk yield ([1]; 40 ml PTS given on day 0, day −1, individual cows): 31.9 kg and 27.7 kg
- Milk yield ([1]; 40 ml PTS given on day 0, day −2, individual cows): 32.2 kg and 28.9 kg
- Milk yield ([1]; 40 ml PTS given on day 0, day −3, individual cows): 33.3 kg and 28.1 kg
- Milk yield ([1]; 40 ml PTS given on day 0, day −4, individual cows): 31.9 kg and 28.5 kg
- Milk yield ([1]; 40 ml PTS given on day 0, day −5, individual cows): 31.4 kg and 27.9 kg
- Milk yield ([1]; 40 ml PTS given on day 0, day −6, individual cows): 33.2 kg and 28.3 kg
- Average milking/day of last 7 days before administration ([1]; 40 ml PTS, individual cows): 32.3 kg and 28.3 kg
- % reduction after 24 h ([1]; 40 ml PTS, individual cows): 31% and 23%
- % reduction after 48 h ([1]; 40 ml PTS, individual cows): 24% and 17%
- % reduction after 72 h ([1]; 40 ml PTS, individual cows): 11% and 7%
- Average reduction 24 and 48 h (%) ([1]; 40 ml PTS, individual cows): 28% and 20%
- Milk yield After 24 h ([1]; 40 ml PTS, individual cows): 22.4 kg and 21.9 kg
- Milk yield After 48 h ([1]; 40 ml PTS, individual cows): 24.4 kg and 23.4 kg
- Milk yield After 72 h ([1]; 40 ml PTS, individual cows): 28.9 kg and 26.4 kg
- Milk yield After 96 h ([1]; 40 ml PTS, individual cows): 32.2 kg and 27.1 kg
- Milk yield After 120 h ([1]; 40 ml PTS, individual cows): 31.2 kg and 28.2 kg
- Milk yield ([1]; 60 ml PTS given after last milking on day 0, day 0, individual cows): 32.4 kg and 29.3 kg
- Milk yield ([1]; 60 ml PTS given on day 0, day 1, individual cows): 19.4 kg and 14.5 kg
- Milk yield ([1]; 60 ml PTS given on day 0, day 2, individual cows): 20.0 kg and 14.9 kg
- Milk yield ([1]; 60 ml PTS given on day 0, day 3, individual cows): 23.9 kg and 23.4 kg
- Milk yield ([1]; 60 ml PTS given on day 0, day 4, individual cows): 27.8 kg and 27.2 kg
- Milk yield ([1]; 60 ml PTS given on day 0, day 5, individual cows): 31.6 kg and 28.3 kg
- Milk yield ([1]; 60 ml PTS given on day 0, day 6, individual cows): 32.2 kg and 27.4 kg
- Milk yield ([1]; 60 ml PTS given on day 0, day −1, individual cows): 32.2 kg and 28.1 kg
- Milk yield ([1]; 60 ml PTS given on day 0, day −2, individual cows): 33.2 kg and 28.3 kg
- Milk yield ([1]; 60 ml PTS given on day 0, day −3, individual cows): 31.9 kg and 27.4 kg
- Milk yield ([1]; 60 ml PTS given on day 0, day −4, individual cows): 33.5 kg and 29.6 kg
- Milk yield ([1]; 60 ml PTS given on day 0, day −5, individual cows): 32.4 kg and 28.3 kg
- Milk yield ([1]; 60 ml PTS given on day 0, day −6, individual cows): 33.4 kg and 28.9 kg
- Average milking/day of last 7 days before administration ([1]; 60 ml PTS, individual cows): 28.6 kg and 32.7 kg
- % reduction after 24 h ([1]; 60 ml PTS, individual cows): 51% and 40%
- % reduction after 48 h ([1]; 60 ml PTS, individual cows): 48% and 39%
- % reduction after 72 h ([1]; 60 ml PTS, individual cows): 18% and 27%
- % reduction after 96 h ([1]; 60 ml PTS, individual cows): 5% and 15%
- Average reduction 24 and 48 h (%) ([1]; 60 ml PTS, individual cows): 50% and 40%
- Milk yield After 24 h ([1]; 60 ml PTS, individual cows): 14.5 kg and 19.4 kg
- Milk yield After 48 h ([1]; 60 ml PTS, individual cows): 14.9 kg and 20 kg
- Milk yield After 72 h ([1]; 60 ml PTS, individual cows): 23.4 kg and 23.9 kg
- Milk yield After 96 h ([1]; 60 ml PTS, individual cows): 27.2 kg and 27.8 kg
- Milk yield After 120 h ([1]; 60 ml PTS, individual cows): 28.3 kg and 31.6 kg
- time to recovery of milk yield after administration ([1]; PTS): 3 to 4 days
- damage to the udder ([1]; bovine, in vivo): does not reduce milk yield because of damaging the udder
- % reduction after 24 h average (milk yield) ([2]; 24 h after one oral gel capsule, dose equimolar to 80 ml di-n-propyl disulfide, negative value = increase in yield): 45%
- % reduction after 48 h average (milk yield) ([2]; 48 h after one oral gel capsule, dose equimolar to 80 ml di-n-propyl disulfide, negative value = increase in yield): 44%
- % reduction after 72 h average (milk yield) ([2]; 72 h after one oral gel capsule, dose equimolar to 80 ml di-n-propyl disulfide, negative value = increase in yield): 23%
- % reduction after 96 h average (milk yield) ([2]; 96 h after one oral gel capsule, dose equimolar to 80 ml di-n-propyl disulfide, negative value = increase in yield): 10%
- average reduction after 24, 48 and 72 h (%) (milk yield) ([2]; average of 24, 48 and 72 h after one oral gel capsule, dose equimolar to 80 ml di-n-propyl disulfide): 37%
- Average reduction after 24 and 48 h (%) (milk yield) ([2]; average of 24 and 48 h after one oral gel capsule, dose equimolar to 80 ml di-n-propyl disulfide): 45%
- Milk yield (kg) Last milking ([2]; before administration, individual cows, single oral gel capsule dose per cow (ml unless g): diethyl disulfide 63, di-n-propyl disulfide 80, diisopropyl disulfide 160, di-n-butyl disulfide 100, dibenzyl disulfide 102, diethyl sulfide 55, di-n-propyl sulfide 72, diisopropyl sulfide 74, di-n-butyl sulfide 90, dibenzyl sulfide 96 g, diphenyl sulfide 85, di-n-propyl trisulfide 98, di-n-propyl sulfone 6): 28.6 kg and 32.7 kg
- Average reduction after 24 and 48 h (%) [2, 3]: 49% and 40%
- Milk yield (kg) After 24 h [2, 3]: 14.5 kg and 19.4 kg
- Milk yield (kg) After 48 h [2, 3]: 14.9 kg and 20 kg
- Milk yield (kg) After 72 h [2, 3]: 23.4 kg and 23.9 kg
- Milk yield (kg) After 96 h [2, 3]: 27.2 kg and 27.8 kg
- average reduction after 24, 48 and 72 h (%) [2, 3]: 39% and 35.7%
- % reduction after 24 h [2, 4]: 49% and 40%
- % reduction after 48 h [2, 4]: 48% and 39%
- % reduction after 72 h [2, 4]: 18% and 27%
- % reduction after 96 h [2, 4]: 5% and 15%
